Measured values published in PubChem BioAssay AID1919016 (Molecular Pharmacology Branch, DTP, NCI, 2023).

Tested on: NCI-H196 complex spheroid growth, percent test/control
Assay: Anticancer human tumor NCI-H196 cell line growth inhibition [AhR];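 also: seven days of drug exposure starting three days after plating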;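 as to viability, T/C: 100% = DMSO vehicle control wells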
Conditions: for IC50: curve of first compound; for viability, T/C: stronger effect = lower value; active = viability on the fitted dose curve at most 10% of control; inactive = the rest
Procedure, shortened: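 Agents were dosed in half-log steps down from roughly clinical Cmax, or from 10 microM where Cmax was unknown, alone and with AhR antagonists. Read-out: percent test/control growth of tumor spheroids containing HUVEC and MSC stromal cells.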

[1] = second compound 0.1 µM, first compound 0.0316 µM
[2] = second compound 0.1 µM, first compound 0.1 µM
[3] = second compound 0.1 µM, first compound 0.316 µM
[4] = second compound 0.1 µM, first compound 1 µM
[5] = second compound 0.1 µM, first compound 3.16 µM
[6] = second compound 0.1 µM, first compound 10 µM
[7] = second compound 0.316 µM, first compound 0.0316 µM
[8] = second compound 0.316 µM, first compound 0.1 µM
[9] = second compound 0.316 µM, first compound 0.316 µM
[10] = second compound 0.316 µM, first compound 1 µM
[11] = second compound 0.316 µM, first compound 3.16 µM
[12] = second compound 0.316 µM, first compound 10 µM
[13] = second compound 1 µM, first compound 0.0316 µM
[14] = second compound 1 µM, first compound 0.1 µM
[15] = second compound 1 µM, first compound 0.316 µM
[16] = second compound 1 µM, first compound 1 µM
[17] = second compound 1 µM, first compound 3.16 µM
[18] = second compound 1 µM, first compound 10 µM
[19] = second compound 3.16 µM, first compound 0.0316 µM
[20] = second compound 3.16 µM, first compound 0.1 µM
[21] = second compound 3.16 µM, first compound 0.316 µM
[22] = second compound 3.16 µM, first compound 1 µM
[23] = second compound 3.16 µM, first compound 3.16 µM
[24] = second compound 3.16 µM, first compound 10 µM
[25] = second compound 10 µM, first compound 0.0316 µM
[26] = second compound 10 µM, first compound 0.1 µM
[27] = second compound 10 µM, first compound 0.316 µM
[28] = second compound 10 µM, first compound 1 µM
[29] = second compound 10 µM, first compound 3.16 µM
[30] = second compound 10 µM, first compound 10 µM
[31] = second compound 0.1 µM, first compound 0.00949 µM
[32] = second compound 0.1 µM, first compound 0.03 µM
[33] = second compound 0.1 µM, first compound 0.0949 µM
[34] = second compound 0.1 µM, first compound 0.3 µM
[35] = second compound 0.316 µM, first compound 0.00949 µM
[36] = second compound 0.316 µM, first compound 0.03 µM
[37] = second compound 0.316 µM, first compound 0.0949 µM
[38] = second compound 0.316 µM, first compound 0.3 µM
[39] = second compound 1 µM, first compound 0.00949 µM
[40] = second compound 1 µM, first compound 0.03 µM
[41] = second compound 1 µM, first compound 0.0949 µM
[42] = second compound 1 µM, first compound 0.3 µM
[43] = second compound 3.16 µM, first compound 0.00949 µM
[44] = second compound 3.16 µM, first compound 0.03 µM
[45] = second compound 3.16 µM, first compound 0.0949 µM
[46] = second compound 3.16 µM, first compound 0.3 µM
[47] = second compound 10 µM, first compound 0.00949 µM
[48] = second compound 10 µM, first compound 0.03 µM
[49] = second compound 10 µM, first compound 0.0949 µM
[50] = second compound 10 µM, first compound 0.3 µM

CC1(C)CCC(CN2CCN(c3ccc(C(=O)NS(=O)(=O)c4ccc(NCC5CCOCC5)c([N+](=O)[O-])c4)c(Oc4cnc5[nH]ccc5c4)c3)CC2)=C(c2ccc(Cl)cc2)C1 + CC(CO)NC(=O)c1cc(-c2ccc(Cl)cc2)nn(-c2cnn(C)c2)c1=O
inactive: viability, T/C [1] 99.8% | viability, T/C [2] 100% | viability, T/C [3] 98.9% | viability, T/C [4] 98.2% | viability, T/C [5] 106% | viability, T/C [6] 104% | viability, T/C [7] 100% | viability, T/C [8] 101% | viability, T/C [9] 100% | viability, T/C [10] 101% | viability, T/C [11] 103% | viability, T/C [12] 86.9% | viability, T/C [13] 99.7% | viability, T/C [14] 98.8% | viability, T/C [15] 96.5% | viability, T/C [16] 109% | viability, T/C [17] 106% | viability, T/C [18] 104% | viability, T/C [19] 98.8% | viability, T/C [20] 101% | viability, T/C [21] 108% | viability, T/C [22] 108% | viability, T/C [23] 113% | viability, T/C [24] 99.3% | viability, T/C [25] 104% | viability, T/C [26] 113% | viability, T/C [27] 99.9% | viability, T/C [28] 115% | viability, T/C [29] 116% | viability, T/C [30] 96%
> 10 µM: IC50 (second compound 0.1 µM) | IC50 (second compound 0.316 µM) | IC50 (second compound 1 µM) | IC50 (second compound 3.16 µM) | IC50 (second compound 10 µM)

CC1COCCN1c1cc(C2(S(C)(=N)=O)CC2)nc(-c2ccnc3[nH]ccc23)n1 (stereo not given) + CC(CO)NC(=O)c1cc(-c2ccc(Cl)cc2)nn(-c2cnn(C)c2)c1=O
> 10 µM: IC50 (second compound 0.1 µM) | IC50 (second compound 0.316 µM) | IC50 (second compound 1 µM) | IC50 (second compound 3.16 µM) | IC50 (second compound 10 µM)
inactive: viability, T/C [1] 106% | viability, T/C [2] 115% | viability, T/C [3] 98.6% | viability, T/C [4] 117% | viability, T/C [5] 101% | viability, T/C [6] 87% | viability, T/C [7] 103% | viability, T/C [8] 110% | viability, T/C [9] 114% | viability, T/C [10] 104% | viability, T/C [11] 89.8% | viability, T/C [12] 91.1% | viability, T/C [13] 113% | viability, T/C [14] 114% | viability, T/C [15] 114% | viability, T/C [16] 109% | viability, T/C [17] 100% | viability, T/C [18] 85.8% | viability, T/C [19] 119% | viability, T/C [20] 126% | viability, T/C [21] 106% | viability, T/C [22] 111% | viability, T/C [23] 99.3% | viability, T/C [24] 83.8% | viability, T/C [25] 113% | viability, T/C [26] 115% | viability, T/C [27] 109% | viability, T/C [28] 120% | viability, T/C [29] 103% | viability, T/C [30] 81.8%

CCN(c1cc(-c2ccc(CN3CCOCC3)cc2)cc(C(=O)NCc2c(C)cc(C)[nH]c2=O)c1C)C1CCOCC1 + CC(CO)NC(=O)c1cc(-c2ccc(Cl)cc2)nn(-c2cnn(C)c2)c1=O
> 3 µM: IC50 (second compound 0.1 µM) | IC50 (second compound 0.316 µM) | IC50 (second compound 1 µM) | IC50 (second compound 3.16 µM) | IC50 (second compound 10 µM)
inactive: viability, T/C [31] 111% | viability, T/C [32] 111% | viability, T/C [33] 105% | viability, T/C [34] 108% | viability, T/C (second compound 0.1 µM, first compound 0.949 µM) 111% | viability, T/C (second compound 0.1 µM, first compound 3 µM) 107% | viability, T/C [35] 123% | viability, T/C [36] 118% | viability, T/C [37] 105% | viability, T/C [38] 111% | viability, T/C (second compound 0.316 µM, first compound 0.949 µM) 118% | viability, T/C (second compound 0.316 µM, first compound 3 µM) 121% | viability, T/C [39] 112% | viability, T/C [40] 116% | viability, T/C [41] 113% | viability, T/C [42] 117% | viability, T/C (second compound 1 µM, first compound 0.949 µM) 118% | viability, T/C (second compound 1 µM, first compound 3 µM) 118% | viability, T/C [43] 121% | viability, T/C [44] 112% | viability, T/C [45] 121% | viability, T/C [46] 112% | viability, T/C (second compound 3.16 µM, first compound 0.949 µM) 123% | viability, T/C (second compound 3.16 µM, first compound 3 µM) 108% | viability, T/C [47] 120% | viability, T/C [48] 127% | viability, T/C [49] 123% | viability, T/C [50] 115% | viability, T/C (second compound 10 µM, first compound 0.949 µM) 115% | viability, T/C (second compound 10 µM, first compound 3 µM) 124%

Nc1ncn(C2CC(O)C(CO)S2)c(=O)n1 (stereo not given) + CC(CO)NC(=O)c1cc(-c2ccc(Cl)cc2)nn(-c2cnn(C)c2)c1=O
> 0.3 µM: IC50 (second compound 0.1 µM) | IC50 (second compound 0.316 µM) | IC50 (second compound 1 µM) | IC50 (second compound 3.16 µM) | IC50 (second compound 10 µM)
inactive: viability, T/C (second compound 0.1 µM, first compound 0.000949 µM) 104% | viability, T/C (second compound 0.1 µM, first compound 0.003 µM) 94.2% | viability, T/C [31] 103% | viability, T/C [32] 108% | viability, T/C [33] 116% | viability, T/C [34] 103% | viability, T/C (second compound 0.316 µM, first compound 0.000949 µM) 105% | viability, T/C (second compound 0.316 µM, first compound 0.003 µM) 104% | viability, T/C [35] 94.2% | viability, T/C [36] 101% | viability, T/C [37] 113% | viability, T/C [38] 105% | viability, T/C (second compound 1 µM, first compound 0.000949 µM) 107% | viability, T/C (second compound 1 µM, first compound 0.003 µM) 104% | viability, T/C [39] 112% | viability, T/C [40] 110% | viability, T/C [41] 112% | viability, T/C [42] 118% | viability, T/C (second compound 3.16 µM, first compound 0.000949 µM) 106% | viability, T/C (second compound 3.16 µM, first compound 0.003 µM) 101% | viability, T/C [43] 110% | viability, T/C [44] 114% | viability, T/C [45] 120% | viability, T/C [46] 127% | viability, T/C (second compound 10 µM, first compound 0.000949 µM) 108% | viability, T/C (second compound 10 µM, first compound 0.003 µM) 116% | viability, T/C [47] 118% | viability, T/C [48] 114% | viability, T/C [49] 111% | viability, T/C [50] 112%
